Assay results taken from the supplement of paper PMC10307832.

Key:
Experiment in all cases: relative viability (nuclei count vs DMSO), 5 days (fraction); higher = more cells survive
[1] = compound: CCCS(=O)(=O)Nc1ccc(F)c(C(=O)c2c[nH]c3ncc(-c4ccc(Cl)cc4)cc23)c1F [Vemurafenib] + Cc1nc(Nc2ncc(C(=O)Nc3c(C)cccc3Cl)s2)cc(N2CCN(CCO)CC2)n1 [Dasatinib] (partner 0.075 µM)
How it was run: (§1)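 Relative viability is defined as nuclei in treated wells over nuclei in vehicle wells. Duplicate plates were run and medians reported. Lung cancer cell lines in 1536-well plates were dosed by pin tool one day after seeding, with one drug or with a fixed anchor-drug dose plus five library-drug doses (not always all listed) in √10 steps, and nuclei were counted after 5 days.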

[2] = compound: CCCS(=O)(=O)Nc1ccc(F)c(C(=O)c2c[nH]c3ncc(-c4ccc(Cl)cc4)cc23)c1F [Vemurafenib] + C[C@]1(O)C[C@@H](c2nc(-c3ccc4ccc(-c5ccccc5)nc4c3)c3c(N)nccn32)C1 [Linsitinib] (partner 1 µM)
How it was run: as §1

[3] = compound: Cc1nc(NC(=O)N2CCC[C@H]2C(N)=O)sc1-c1ccnc(C(C)(C)C(F)(F)F)c1 [Alpelisib] + COc1cccc2cc(-c3nc([C@H]4CC[C@H](C(=O)O)CC4)n4ncnc(N)c34)[nH]c12 [OSI-027] (partner 0.5 µM)
How it was run: as §1

[4] = compound: COc1cccc2cc(-c3nc([C@H]4CC[C@H](C(=O)O)CC4)n4ncnc(N)c34)[nH]c12 [OSI-027] + CCNC(=O)c1noc(-c2cc(C(C)C)c(O)cc2O)c1-c1ccc(CN2CCOCC2)cc1 [Luminespib] (partner 0.01 µM)
How it was run: as §1

UMC-11
relative viability ([1]; first compound 0.03162 µM): 0.465
relative viability ([1]; first compound 0.1 µM): 0.459
relative viability ([1]; first compound 0.3162 µM): 0.455
relative viability ([1]; first compound 1 µM): 0.537
relative viability ([2]; first compound 0.03162 µM): 0.945
relative viability ([2]; first compound 0.1 µM): 0.989
relative viability ([2]; first compound 0.3162 µM): 1.06
relative viability ([2]; first compound 1 µM): 0.949
relative viability ([3]; first compound 0.04 µM): 0.473
relative viability ([3]; first compound 0.1265 µM): 0.464
relative viability ([3]; first compound 0.4 µM): 0.502
relative viability ([3]; first compound 1.265 µM): 0.438
relative viability ([3]; first compound 4 µM): 0.462
relative viability ([4]; first compound 0.01 µM): 1.04
relative viability ([4]; first compound 0.03162 µM): 0.949
relative viability ([4]; first compound 0.1 µM): 0.783
relative viability ([4]; first compound 0.3162 µM): 0.637
relative viability ([4]; first compound 1 µM): 0.551
